The source of these data is BindingDB's records for doi:10.1021/acs.biochem.6b01020 (University of Delaware, 2017).

By Kd is commonly meant the free concentration of one partner at which half of the binding sites on the other are occupied at equilibrium, for simple one-to-one binding. Higher therefore signals a looser complex.

The target in this test is T1, Estradiol-bound Estrogen receptor [255-595] (Homo sapiens, UniProt P03372).
T1 construct: 255-595
T1 sequence (P03372 whole entry): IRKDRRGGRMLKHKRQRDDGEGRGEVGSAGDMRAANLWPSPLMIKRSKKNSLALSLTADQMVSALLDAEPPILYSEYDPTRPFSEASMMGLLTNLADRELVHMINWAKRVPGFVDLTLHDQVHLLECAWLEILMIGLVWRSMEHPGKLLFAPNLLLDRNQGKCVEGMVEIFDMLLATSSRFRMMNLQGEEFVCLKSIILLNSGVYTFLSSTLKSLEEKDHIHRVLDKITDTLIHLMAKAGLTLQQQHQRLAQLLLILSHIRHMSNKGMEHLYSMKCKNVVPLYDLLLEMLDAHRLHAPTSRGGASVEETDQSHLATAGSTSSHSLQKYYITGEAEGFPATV
Description: Fluorescence Polarization Assay. The note with it: pH 7.4; 25 °C. The method, then: Peptide concentrations were determined by the absorbance at 492 nm, using a fluorescein extinction coefficient of 83000. Fluorescence polarization assays were conducted in 96-well round-bottom black opaque plates (Costar) using 2-fold serial dilutions of the ERα LBD, to final protein concentrations from 10 to 0.0098 μM, in PBS containing 0.1 mM DTT, 20 μM 17β-estradiol, 0.04 mg/mL BSA, and 100 nM fluorescein-labeled peptide. Solutions were incubated in the dark for 30 min at room temperature before being read on a PerkinElmer Fusion plate reader using a 485 nm fluorescein excitation filter and a 535 nm emission filter with a polarizer.
In general terms: In fluorescence polarisation assays a small probe gives low polarisation when free and higher when bound to something large.

Square brackets hold non-standard residues; d marks the D form. Peptide text beside a SMILES is read from it. * marks the point of attachment. C(CF3)3 = FC(F)(F)C(C(F)(F)F)(C(F)(F)F)*; Hyp = O=C(O)[C@@H]1C[C@@H](O)CN1; hSer = N[C@@H](CCO)C(=O)O

The compound `CC[C@H](C)[C@H](NC(=O)[C@H](CCCCN)NC(=O)[C@H](Cc1cnc[nH]1)NC(=O)[C@H](CCCNC(=N)N)NC(=O)[C@H](CCC(=O)O)NC(=O)[C@@H](NC(=O)[C@H](CC(C)C)NC(=O)[C@@H](N)CS)[C@@H](C)O)C(=O)N[C@H](CCOC(C(F)(F)F)(C(F)(F)F)C(F)(F)F)C(=O)N[C@@H](Cc1cnc[nH]1)C(=O)N[C@@H](CCCNC(=N)N)C(=O)N[C@@H](CC(C)C)C(=O)N[C@@H](CC(C)C)C(=O)N[C@@H](CCC(N)=O)C(=O)N[C@@H](CCC(=O)O)C(=O)O` gave a Kd of 43 µM.
To `CC(C)C[C@H](NC(=O)[C@H](CC(C)C)NC(=O)[C@H](CCCNC(=N)N)NC(=O)[C@H](Cc1cnc[nH]1)NC(=O)[C@H](CC(C)C)NC(=O)[C@H](CCOC(C(F)(F)F)(C(F)(F)F)C(F)(F)F)NC(=O)[C@H](CCCCN)NC(=O)[C@H](Cc1cnc[nH]1)NC(=O)[C@H](CCCNC(=N)N)NC(=O)[C@H](CCC(=O)O)NC(=O)[C@@H](NC(=O)[C@H](CC(C)C)NC(=O)[C@@H](N)CS)[C@@H](C)O)C(=O)N[C@@H](CCC(N)=O)C(=O)N[C@@H](CCC(=O)O)C(=O)O` [CLTERHK(Hse(C4F9))LHRLLQE] (H-CLTERHK[hSer](C(CF3)3)LHRLLQE-OH) belongs 7.1 µM; to `CC[C@H](C)[C@H](NC(=O)[C@H](CCCCN)NC(=O)[C@H](Cc1cnc[nH]1)NC(=O)[C@H](CCCNC(=N)N)NC(=O)[C@H](CCC(=O)O)NC(=O)[C@@H](NC(=O)[C@H](CC(C)C)NC(=O)[C@@H](N)CS)[C@@H](C)O)C(=O)N1C[C@H](OC(C(F)(F)F)(C(F)(F)F)C(F)(F)F)C[C@H]1C(=O)N[C@@H](Cc1cnc[nH]1)C(=O)N[C@@H](CCCNC(=N)N)C(=O)N[C@@H](CC(C)C)C(=O)N[C@@H](CC(C)C)C(=O)N[C@@H](CCC(N)=O)C(=O)N[C@@H](CCC(=O)O)C(=O)O` (H-CLTERHKI[Hyp](C(CF3)3)HRLLQE-OH), over 150 µM; to `CC[C@H](C)[C@H](NC(=O)[C@H](CCCCN)NC(=O)[C@H](Cc1cnc[nH]1)NC(=O)[C@H](CCCNC(=N)N)NC(=O)[C@H](CCC(=O)O)NC(=O)[C@@H](NC(=O)[C@H](CC(C)C)NC(=O)[C@@H](N)CS)[C@@H](C)O)C(=O)N[C@@H](CC(C)C)C(=O)N[C@@H](Cc1cnc[nH]1)C(=O)N[C@@H](CCCNC(=N)N)C(=O)N[C@@H](CCOC(C(F)(F)F)(C(F)(F)F)C(F)(F)F)C(=O)N[C@@H](CC(C)C)C(=O)N[C@@H](CCC(N)=O)C(=O)N[C@@H](CCC(=O)O)C(=O)O` (H-CLTERHKILHR[hSer](C(CF3)3)LQE-OH), 2.2 µM.
To H-CLTERHKILHRLLQE-OH belongs 1 µM.
